Key:
[1] = biological target: RON (Homo sapiens, UniProt Q04912); assay: Inhibitory activity against RON, TR-FRET kinase assay; format: biochemical; details: TR-FRET enzyme assay
Description: In order to measure the inhibitory activity of each of the compounds of Examples against RON, the IC50 of each of the compounds was measured using Time-resolved fluorescence energy transfer (TR-FRET).
(§1) Specifically, the compound was prepared to a concentration of 1 mM in 100% DMSO and was diluted 10 times in a stepwise manner through 3-fold dilution. The compound (2 ul) diluted in a stepwise manner was added to a 96-well-plate containing 48 ul of a 1× kinase reaction buffer (50 mM HEPES (pH 7.4), 0.01% Tween-20, 5 mM DTT, 0.5 mM Na3VO4, 2 mM EGTA, 10 mM MgCl2).
The RON protein was diluted to a concentration of 49.3 nM in a RON storage buffer (50 mM Tris-HCl (pH 7.5), 150 mM NaCl, 0.5 mM EDTA, 0.02% Triton X-100), and then diluted again to a concentration of 0.4 nM in a 1×kinase reaction buffer. As a substrate cocktail, a RON-specific substrate mixed solution (40 uM ULight-labeled Poly GT, 100 nM ATP) was prepared at a concentration 2 times the final reaction concentration.
(§2) Thereafter, a 384-well-plate was prepared, and 2.5 μl of each of the diluted compounds of Examples was added to a corresponding well of experimental group wells, and 2.5 μl of a 4% DMSO solution was dispensed into high control wells and low control wells.
(§3) Thereafter, 2.5 μL of 0.4 nM RON was dispensed into each of the high control wells and the experimental group wells, and 2.5 μL of the 1× kinase reaction buffer was added to the low control wells, and all the wells were centrifuged at room temperature for 40 seconds at 1,000 RPM, and then incubated at room temperature for 20-30 minutes. Then, 5 μL of the substrate cocktail (2×) was dispensed into each well, and all the wells were centrifuged at room temperature for 40 seconds at 1,000 RPM, and then incubated at room temperature for 60 minutes. Thereafter, 5 μL of 30 mM EDTA was added to each well to terminate the reaction, and all the wells were then incubated again at room temperature for 5 minutes. Thereafter, 5 μL of a 4×phosphotyrosine antibody (Perkin Elmer) containing europium was added to each well, and all the wells were then incubated at room temperature for 60 minutes. After the incubation, the 384-well-plate was read with the Vison plate reader. In this case, the excitation wavelength was 340 nm, and the emission wavelength was 620 nm and 665 nm. The IC50 value of each compound of Examples was derived using the GraphPd Prism7 program.

[2] = biological target: cMET (Homo sapiens, UniProt P08581); assay: Inhibitory activity against MET (cMET), TR-FRET kinase assay; format: biochemical; details: TR-FRET enzyme assay
Sequence of cMET (P08581 25-1390): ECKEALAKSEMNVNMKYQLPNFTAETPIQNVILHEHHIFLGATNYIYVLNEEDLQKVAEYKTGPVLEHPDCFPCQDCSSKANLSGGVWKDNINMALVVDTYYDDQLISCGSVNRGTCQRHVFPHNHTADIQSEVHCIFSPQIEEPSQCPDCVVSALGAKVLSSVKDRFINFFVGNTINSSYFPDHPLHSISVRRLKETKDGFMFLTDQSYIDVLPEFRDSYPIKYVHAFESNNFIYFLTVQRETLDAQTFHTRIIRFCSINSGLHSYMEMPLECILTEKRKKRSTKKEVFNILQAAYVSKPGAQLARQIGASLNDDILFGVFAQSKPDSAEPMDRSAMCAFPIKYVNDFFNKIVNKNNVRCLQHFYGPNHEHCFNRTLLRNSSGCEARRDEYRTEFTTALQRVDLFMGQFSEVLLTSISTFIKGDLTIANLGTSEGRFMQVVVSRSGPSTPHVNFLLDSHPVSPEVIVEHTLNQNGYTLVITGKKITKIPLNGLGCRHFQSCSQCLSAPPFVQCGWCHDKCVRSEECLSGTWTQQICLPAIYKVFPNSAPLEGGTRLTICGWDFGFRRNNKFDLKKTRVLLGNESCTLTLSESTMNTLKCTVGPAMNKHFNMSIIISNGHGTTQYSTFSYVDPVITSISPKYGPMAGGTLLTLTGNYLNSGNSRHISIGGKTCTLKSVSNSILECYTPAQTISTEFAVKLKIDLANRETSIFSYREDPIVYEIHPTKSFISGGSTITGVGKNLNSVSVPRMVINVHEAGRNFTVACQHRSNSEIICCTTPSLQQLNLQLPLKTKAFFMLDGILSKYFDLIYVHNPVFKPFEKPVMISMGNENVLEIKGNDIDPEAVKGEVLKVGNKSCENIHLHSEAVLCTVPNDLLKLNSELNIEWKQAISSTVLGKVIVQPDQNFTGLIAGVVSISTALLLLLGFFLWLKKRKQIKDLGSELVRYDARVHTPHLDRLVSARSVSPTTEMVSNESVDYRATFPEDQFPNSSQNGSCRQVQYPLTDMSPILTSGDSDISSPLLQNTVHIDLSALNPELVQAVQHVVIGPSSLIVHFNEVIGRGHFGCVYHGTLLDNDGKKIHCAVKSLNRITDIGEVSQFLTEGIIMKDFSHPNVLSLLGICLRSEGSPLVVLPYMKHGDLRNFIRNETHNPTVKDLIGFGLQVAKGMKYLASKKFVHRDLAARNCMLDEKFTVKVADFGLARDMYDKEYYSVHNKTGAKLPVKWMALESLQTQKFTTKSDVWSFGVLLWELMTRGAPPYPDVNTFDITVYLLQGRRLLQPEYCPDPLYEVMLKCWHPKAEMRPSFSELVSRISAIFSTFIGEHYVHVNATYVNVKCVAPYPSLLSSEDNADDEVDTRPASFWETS
Description: In addition, in order to measure the enzyme activity inhibition for cMET, the evaluation was performed in the same manner as the enzyme activity inhibition measurement experiment for RON.
as §1, with “a 1×kinase” for “a 1× kinase”, “7.4), 0.05% BSA, 0.005%” for “7.4), 0.01%”, “Tween-20, 1” for “Tween-20, 5”, “mM MnCl2, 20” for “mM Na3VO4, 2 mM EGTA, 10”
The cMET protein was diluted to a concentration of 263 nM in a cMET storage buffer (50 mM Tris-HCl (pH 7.5), 150 mM NaCl, 0.05% Brij35, 1 mM DTT, 10% Glycerol), and then diluted again to a concentration of 2 nM in a 1×kinase reaction buffer. As a substrate cocktail, a MET-specific substrate mixed solution (5 uM TK peptide, 10 mM ATP) was prepared at a concentration 2 times the final reaction concentration.
as §2
as §3, with “of 2” for “of 0.4”, “nM cMET” for “nM RON”, “of 90” for “of 30”, “The […]” for “The IC50”

Sequence of RON (Q04912 25-1400, species assumed): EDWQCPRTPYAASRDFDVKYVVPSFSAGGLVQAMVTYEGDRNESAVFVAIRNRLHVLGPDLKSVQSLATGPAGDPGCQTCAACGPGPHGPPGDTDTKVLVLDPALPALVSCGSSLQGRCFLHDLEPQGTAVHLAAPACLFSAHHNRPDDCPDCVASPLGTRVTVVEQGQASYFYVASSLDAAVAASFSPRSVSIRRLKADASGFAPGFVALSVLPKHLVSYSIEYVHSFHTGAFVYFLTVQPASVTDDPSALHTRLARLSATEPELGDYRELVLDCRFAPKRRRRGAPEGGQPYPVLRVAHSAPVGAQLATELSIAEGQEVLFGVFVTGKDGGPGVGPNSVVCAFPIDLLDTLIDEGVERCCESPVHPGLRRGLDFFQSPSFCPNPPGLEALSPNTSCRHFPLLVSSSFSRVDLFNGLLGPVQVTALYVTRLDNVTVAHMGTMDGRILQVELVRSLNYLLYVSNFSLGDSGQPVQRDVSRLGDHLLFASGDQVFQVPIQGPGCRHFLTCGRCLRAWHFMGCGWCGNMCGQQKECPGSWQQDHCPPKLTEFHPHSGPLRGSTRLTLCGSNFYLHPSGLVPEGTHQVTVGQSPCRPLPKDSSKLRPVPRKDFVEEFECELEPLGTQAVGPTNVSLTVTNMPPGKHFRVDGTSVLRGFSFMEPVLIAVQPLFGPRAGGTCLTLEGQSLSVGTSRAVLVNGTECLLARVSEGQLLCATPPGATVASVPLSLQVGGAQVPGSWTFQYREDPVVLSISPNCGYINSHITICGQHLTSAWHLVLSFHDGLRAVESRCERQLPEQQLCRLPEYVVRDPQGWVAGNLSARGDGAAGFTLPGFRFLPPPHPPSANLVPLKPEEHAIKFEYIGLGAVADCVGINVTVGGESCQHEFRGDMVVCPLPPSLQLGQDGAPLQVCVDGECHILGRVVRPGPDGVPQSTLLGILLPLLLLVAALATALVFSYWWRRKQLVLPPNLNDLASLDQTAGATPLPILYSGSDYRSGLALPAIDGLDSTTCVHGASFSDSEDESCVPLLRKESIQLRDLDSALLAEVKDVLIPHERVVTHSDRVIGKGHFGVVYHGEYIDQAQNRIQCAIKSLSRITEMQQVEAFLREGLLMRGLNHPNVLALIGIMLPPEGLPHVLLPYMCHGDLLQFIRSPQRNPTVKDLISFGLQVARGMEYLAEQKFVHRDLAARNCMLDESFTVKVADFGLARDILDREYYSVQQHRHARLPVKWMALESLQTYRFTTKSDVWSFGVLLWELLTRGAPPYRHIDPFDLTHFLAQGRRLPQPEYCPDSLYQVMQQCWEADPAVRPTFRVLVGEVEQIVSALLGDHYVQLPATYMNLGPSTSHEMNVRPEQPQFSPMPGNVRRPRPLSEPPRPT

Nc1ncnc(Oc2ccc(NC(=O)c3nc(-c4ccccc4)cs3)cc2F)c1Cl [Example 41, N-[4-(6-amino-5-chloro-pyrimidin-4-yl)oxy-3-fluoro-phenyl]-4-phenyl-thiazole-2-carboxamide]
IC50 [1]: > 5000 nM
IC50 [2]: > 5 µM

Cn1cc(-n2ncc(C(=O)Nc3ccc(Oc4ncnc(N)c4Cl)c(F)c3)c2C(F)(F)F)cn1 [Example 42, N-[4-(6-amino-5-chloro-pyrimidin-4-yl)oxy-3-fluoro-phenyl]-1-(1-methylpyrazol-4-yl)-5-(trifluoromethyl)pyrazole-4-carboxamide]
IC50 [1]: 500 to 5000 nM
IC50 [2]: > 5 µM

Nc1ncnc(Oc2ccc(NC(=O)c3cnn(-c4ccccn4)c3C(F)(F)F)cc2F)c1Cl [Example 43, N-(4-((6-amino-5-chloropyrimidin-4-yl)oxy)-3-fluorophenyl)-1-(pyridin-2-yl)-5-(trifluoromethyl)-1H-pyrazole-4-carboxamide]
IC50 [1]: < 50 nM
IC50 [2]: > 5 µM

Nc1ncnc(Oc2ccc(NC(=O)c3cnn(-c4cncnc4)c3C(F)(F)F)cc2F)c1Cl [Example 44, N-[4-(6-amino-5-chloro-pyrimidin-4-yl)oxy-3-fluoro-phenyl]-1-pyrimidin-5-yl-5-(trifluoromethyl)pyrazole-4-carboxamide]
IC50 [1]: 50 to 500 nM
IC50 [2]: > 5 µM

Nc1ncnc(Oc2ccc(NC(=O)c3cnn(-c4ncccc4F)c3C(F)(F)F)cc2F)c1Cl [Example 45, N-[4-(6-amino-5-chloro-pyrimidin-4-yl)oxy-3-fluoro-phenyl]-1-(3-fluoro-2-pyridyl)-5-(trifluoromethyl)pyrazole-4-carboxamide]
IC50 [1]: < 50 nM
IC50 [2]: 0.5 to 5 µM

Cc1cccnc1-n1ncc(C(=O)Nc2ccc(Oc3ncnc(N)c3Cl)c(F)c2)c1C(F)(F)F [Example 46, N-[4-(6-amino-5-chloro-pyrimidin-4-yl)oxy-3-fluoro-phenyl]-1-(3-methyl-2-pyridyl)-5-(trifluoromethyl)pyrazole-4-carboxamide]
IC50 [1]: 50 to 500 nM
IC50 [2]: > 5 µM

Cc1ccnc(-n2ncc(C(=O)Nc3ccc(Oc4ncnc(N)c4Cl)c(F)c3)c2C(F)(F)F)c1 [Example 47, N-[4-(6-amino-5-chloro-pyrimidin-4-yl)oxy-3-fluoro-phenyl]-1-(4-methyl-2-pyridyl)-5-(trifluoromethyl)pyrazole-4-carboxamide]
IC50 [1]: 50 to 500 nM
IC50 [2]: > 5 µM

Cc1ccc(-n2ncc(C(=O)Nc3ccc(Oc4ncnc(N)c4Cl)c(F)c3)c2C(F)(F)F)nc1 [Example 48, N-[4-(6-amino-5-chloro-pyrimidin-4-yl)oxy-3-fluoro-phenyl]-1-(5-methyl-2-pyridyl)-5-(trifluoromethyl)pyrazole-4-carboxamide]
IC50 [1]: 500 to 5000 nM
IC50 [2]: > 5 µM

Cc1cccc(-n2ncc(C(=O)Nc3ccc(Oc4ncnc(N)c4Cl)c(F)c3)c2C(F)(F)F)n1 [Example 49, N-[4-(6-amino-5-chloro-pyrimidin-4-yl)oxy-3-fluoro-phenyl]-1-(6-methyl-2-pyridyl)-5-(trifluoromethyl)pyrazole-4-carboxamide]
IC50 [1]: 500 to 5000 nM
IC50 [2]: > 5 µM

Nc1ncnc(Oc2ccc(NC(=O)c3cnn(-c4ccc(F)cn4)c3C(F)(F)F)cc2F)c1Cl [Example 50, N-[4-(6-amino-5-chloro-pyrimidin-4-yl)oxy-3-fluoro-phenyl]-1-(5-fluoro-2-pyridyl)-5-(trifluoromethyl)pyrazole-4-carboxamide]
IC50 [1]: 50 to 500 nM
IC50 [2]: > 5 µM

Nc1ncnc(Oc2ccc(NC(=O)c3cnn(-c4ncccc4Cl)c3C(F)(F)F)cc2F)c1Cl [Example 51, N-[4-(6-amino-5-chloro-pyrimidin-4-yl)oxy-3-fluoro-phenyl]-1-(3-chloro-2-pyridyl)-5-(trifluoromethyl)pyrazole-4-carboxamide]
IC50 [1]: < 50 nM
IC50 [2]: 0.5 to 5 µM

Nc1ncnc(Oc2ccc(NC(=O)c3cnn(-c4cc(Cl)ccn4)c3C(F)(F)F)cc2F)c1Cl [Example 52, N-[4-(6-amino-5-chloro-pyrimidin-4-yl)oxy-3-fluoro-phenyl]-1-(4-chloro-2-pyridyl)-5-(trifluoromethyl)pyrazole-4-carboxamide]
IC50 [1]: 500 to 5000 nM
IC50 [2]: > 5 µM

Nc1ncnc(Oc2ccc(NC(=O)c3cnn(-c4ncccc4C(F)(F)F)c3C(F)(F)F)cc2F)c1Cl [Example 53, N-[4-(6-amino-5-chloro-pyrimidin-4-yl)oxy-3-fluoro-phenyl]-5-(trifluoromethyl)-1-[3-(trifluoromethyl)-2-pyridyl]pyrazole-4-carboxamide]
IC50 [1]: 50 to 500 nM
IC50 [2]: 0.5 to 5 µM

COc1cccnc1-n1ncc(C(=O)Nc2ccc(Oc3ncnc(N)c3Cl)c(F)c2)c1C(F)(F)F [Example 54, N-[4-(6-amino-5-chloro-pyrimidin-4-yl)oxy-3-fluoro-phenyl]-1-(3-methoxy-2-pyridyl)-5-(trifluoromethyl)pyrazole-4-carboxamide]
IC50 [1]: 50 to 500 nM
IC50 [2]: > 5 µM

CCc1ccnc(-n2ncc(C(=O)Nc3ccc(Oc4ncnc(N)c4Cl)c(F)c3)c2C(F)(F)F)c1 [Example 55, N-[4-(6-amino-5-chloro-pyrimidin-4-yl)oxy-3-fluoro-phenyl]-1-(4-ethyl-2-pyridyl)-5-(trifluoromethyl)pyrazole-4-carboxamide]
IC50 [1]: 500 to 5000 nM
IC50 [2]: > 5 µM

Nc1ncnc(Oc2ccc(NC(=O)c3cnn(-c4cccnc4)c3C(F)(F)F)cc2F)c1Cl [Example 56, N-[4-(6-amino-5-chloro-pyrimidin-4-yl)oxy-3-fluoro-phenyl]-1-(3-pyridyl)-5-(trifluoromethyl)pyrazole-4-carboxamide]
IC50 [1]: 50 to 500 nM
IC50 [2]: > 5 µM

Nc1ncnc(Oc2ccc(NC(=O)c3cnn(-c4ccncc4)c3C(F)(F)F)cc2F)c1Cl [Example 57, N-[4-(6-amino-5-chloro-pyrimidin-4-yl)oxy-3-fluoro-phenyl]-1-(4-pyridyl)-5-(trifluoromethyl)pyrazole-4-carboxamide]
IC50 [1]: 500 to 5000 nM
IC50 [2]: > 5 µM

CCc1cccnc1-n1ncc(C(=O)Nc2ccc(Oc3ncnc(N)c3Cl)c(F)c2)c1C(F)(F)F [Example 58, N-[4-(6-amino-5-chloro-pyrimidin-4-yl)oxy-3-fluoro-phenyl]-1-(3-ethyl-2-pyridyl)-5-(trifluoromethyl)pyrazole-4-carboxamide]
IC50 [1]: 50 to 500 nM
IC50 [2]: > 5 µM

Nc1ncnc(Oc2ccc(NC(=O)c3cnn(-c4ncccn4)c3C(F)(F)F)cc2F)c1Cl [Example 59, N-[4-(6-amino-5-chloro-pyrimidin-4-yl)oxy-3-fluoro-phenyl]-1-pyrimidin-2-yl-5-(trifluoromethyl)pyrazole-4-carboxamide]
IC50 [1]: < 50 nM
IC50 [2]: > 5 µM

Nc1ncnc(Oc2ccc(NC(=O)c3cnn(-c4cccnn4)c3C(F)(F)F)cc2F)c1Cl [Example 60, N-[4-(6-amino-5-chloro-pyrimidin-4-yl)oxy-3-fluoro-phenyl]-1-pyridazin-3-yl-5-(trifluoromethyl)pyrazole-4-carboxamide]
IC50 [1]: 50 to 500 nM
IC50 [2]: > 5 µM
